Literature values, collected in patent US9358096B2, “Methods of treatment with drug eluting stents with prolonged local elution profiles with high local concentrations and low systemic concentrations” (Abbott Laboratories, priority 2007, dated 2016).

Columns and labels:
[1] = kidney transplant recipients; usual oral dose of sirolimus of 2 mg per day; cited from earlier work
[2] = cited from earlier work

## CO[C@H]1C[C@@H]2CC[C@@H](C)[C@@](O)(O2)C(=O)C(=O)N2CCCC[C@H]2C(=O)O[C@H]([C@H](C)C[C@@H]2CC[C@@H](O)[C@H](OC)C2)CC(=O)[C@H](C)/C=C(\C)[C@@H](O)[C@@H](OC)C(=O)[C@H](C)C[C@H](C)/C=C/C=C/C=C/1C [sirolimus]
[1]
  trough concentration: 9 ng/mL
[2]; after receiving three 80 mm stents configured as stent 1
  peak concentration of sirolimus, one patient: 35.5 ng/mL
[2]; patients treated with stent 1, one hour after stenting
  mean systemic sirolimus concentration: 20.4 ± 10.0 ng/mL
